Read-outs that look alike come from different tables or passages of the source.
Test system: E. multilocularis metacestodes
Experiment: PGI-assay: drug-induced damage on in vitro cultured metacestodes (Pathogen Box screening cascade and EC50)
Format: cell-based, Echinococcus multilocularis
Conditions: for PGI release, % of the Tx-100 control, 5d / PGI release, % of the Tx-100 control, 12d / cytotoxicity at 10 µM: 10 µM, singlets; for cytotoxicity at 10 µM / PGI release, % of Tx-100 control at 10 µM: Echinococcus multilocularis
[1] = confirmatory screening at 10 µM in triplicates, 5 days of incubation, values as % of Tx-100 control
[2] = confirmatory screening at 10 µM in triplicates, 12 days of incubation, values as % of Tx-100 control
[3] = 120 h, 5 days of incubation, read-out: PGI release, % of the Tx-100 control, 5d
[4] = 288 h, 12 days of incubation, read-out: PGI release, % of the Tx-100 control, 12d

Structure (SMILES)	PGI release, % of the Tx-100 control, 5d (5 days of incubation) [%]	PGI release, % of the Tx-100 control, 12d (12 days of incubation) [%]	other results
CCc1ccc([C@@H]2C[C@H](C(F)(F)F)n3ncc(C(=O)NCc4ccc(OC)cc4)c3N2)cc1 [MMV687180]	-2.14	-5.92	–
COc1ccc2nc(C)cc(OCC(=O)Nc3ccccc3OC)c2c1 [MMV687188]	0.23	4.44	–
COc1ccc2nc(C)cc(OCC(=O)NCc3ccccc3)c2c1 [MMV687189]	-4.79	3.07	–
CC(C)(C(=O)Nc1ccc(F)cc1)n1cc(-c2ccccc2F)cn1 [MMV687239]	0.07	101.93	PGI release, % of Tx-100 control, average, 5d [1]: -0.64%; PGI release, % of Tx-100 control, average, 12d [2]: -1.06%
NC(=O)c1cc(Br)ccc1OCCOc1ccccc1 [MMV687243]	1.02	-1.47	–
CN1CCN(S(=O)(=O)c2ccc(-c3ccc4c(Nc5ccc6n[nH]nc6c5)ccnc4c3)cc2)CC1 [MMV687246]	-0.71	-0.69	–
Nc1nc2cc(-c3cncc(Oc4ccc(F)cc4)c3)ccc2[nH]1 [MMV687248]	2.44	3.04	–
Cn1c(=O)c2c(S(C)(=O)=O)snc2n(C)c1=O [MMV687251]	5.41	6.23	–
CCCCc1ccc(C(=O)Nc2nccc3ccccc23)nc1 [MMV687254]	-0.76	-1.68	–
CC(C)=CCC/C(C)=C\CNCCNC1C2CC3CC(C2)CC1C3 (stereo not drawn) [MMV687273]	8.55	5.83	–
CCc1nc2ccc(Cl)cn2c1C(=O)NCc1ccc(N2CCC(c3ccc(OC(F)(F)F)cc3)CC2)cc1 [MMV687696, Telacebec, Q203, reference compound]	-1.48	7.51	–
O=C(NCc1cc(Cl)cc(Cl)c1)c1c(C(F)(F)F)nc2ccccn12 [MMV687699]	0.90	18.76	–
Nc1ncnc2c1ncn2[C@@H]1O[C@H](COS(=O)(=O)NC(=O)c2ccccc2O)[C@@H](O)[C@H]1O [MMV687700, Salicyl-AMS, reference compound]	-0.78	-1.38	–
COc1cccc(-c2nc3c(N4CCCC4)cccc3n2CC2CCCN2)n1 (stereo not drawn) [MMV687703]	1.13	-0.35	–
c1ccc(Oc2ccc(-c3cc(N4CCNCC4)[nH]n3)cc2)cc1 [MMV687706]	-0.18	0.70	–
O=C1O[C@@H](CO)CN1c1cc(F)c(C2=CCN(Cc3ccccc3)CC2)c(F)c1 [MMV687729]	-0.40	-0.63	–
CCCCOC(=O)Nc1cc2[nH]c(C3CCCCC3)nc2cc1N1CCCC1 [MMV687730]	5.43	56.57	PGI release, % of Tx-100 control, average, 5d (1 µM, triplicates, 5 days of incubation): 3.65%; PGI release, % of Tx-100 control, average, 12d (1 µM, triplicates, 12 days of incubation): -3.14%; activity in the screen at 10 μM (confirmed in triplicates, >20% relative PGI release) (10 μM, 5 and 12 days): active; PGI release, % of Tx-100 control, average, 5d [1]: 22.60%; PGI release, % of Tx-100 control, average, 12d [2]: 45.66%
Cc1cc(OCC(=O)NCc2ccccc2)c2cc(Br)ccc2n1 [MMV687747]	-0.47	1.30	–
c1ccc(C[C@@H]2CN(c3nccc(Oc4ccc(-n5ccnc5)cc4)n3)CCN2)cc1 [MMV687749]	5.87	6.61	–
c1ccc(Oc2ccc(-c3cc(C4CCOCC4)[nH]n3)cc2)cc1 [MMV687762]	-1.81	0.46	–

Structure (SMILES)	PGI release, % of the Tx-100 control, 5d (5 days of incubation) [%]	PGI release, % of the Tx-100 control, 12d (12 days of incubation) [%]	other results
Cc1cnc(N2CCN[C@@H](Cc3ccccc3)C2)nc1Oc1ccc(-n2ccnc2)cc1 [MMV687765]	4.75	6.17	–
CC1(C)OB(O)c2ccc(C3=NOC(c4cc(Cl)c(F)c(Cl)c4)(C(F)(F)F)C3)cc21 (stereo not drawn) [MMV687775]	11.08	-0.22	–
Cc1cc(C2=NOC(c3cc(Cl)c(F)c(Cl)c3)(C(F)(F)F)C2)ccc1C(=O)NCc1ccc2c(c1)C(C)(C)OB2O (stereo not drawn) [MMV687776]	0.60	2.49	–
CC1(C)Cc2c(c(N3CCOCC3)nc3snc(Br)c23)CO1 [MMV687794]	-0.77	-1.36	–
NCC[C@H](O)C(=O)N[C@@H]1C[C@H](N)[C@@H](O[C@H]2O[C@H](CN)[C@@H](O)[C@H](O)[C@H]2O)[C@H](O)[C@H]1O[C@H]1O[C@H](CO)[C@@H](O)[C@H](N)[C@H]1O [MMV687796, Amikacin, reference compound]	–	–	cytotoxicity at 10 µM [3]: -1.34%; cytotoxicity at 10 µM [4]: -4.62%
CC(C)/N=c1\cc2n(-c3ccc(Cl)cc3)c3ccccc3nc-2cc1Nc1ccc(Cl)cc1 [MMV687800, Clofazimine, reference compound]	–	–	cytotoxicity at 10 µM [3]: 26.6%; PGI release, % of Tx-100 control at 10 µM (120 h, confirmatory screening at 10 µM in triplicates, 5 days of incubation, values as % of Tx-100 control, read-out: PGI release, % of Tx-100 control, average, 5d): -0.59%; cytotoxicity at 10 µM [4]: 65.6%; PGI release, % of Tx-100 control at 10 µM (288 h, confirmatory screening at 10 µM in triplicates, 12 days of incubation, values as % of Tx-100 control, read-out: PGI release, % of Tx-100 control, average, 12d): 3.89%
CC[C@@H](CO)NCCN[C@@H](CC)CO [MMV687801, Ethambutol, reference compound]	–	–	cytotoxicity at 10 µM [3]: -0.84%; cytotoxicity at 10 µM [4]: 0.29%
CC(=O)NC[C@H]1CN(c2ccc(N3CCOCC3)c(F)c2)C(=O)O1 [MMV687803, Linezolid, reference compound]	–	–	cytotoxicity at 10 µM [3]: -0.58%; cytotoxicity at 10 µM [4]: 0.38%
CN1CCN(CCCOc2ncc(Nc3ncc(-c4ccc(C(F)(F)F)c(F)c4)nc3C(N)=O)cn2)CC1 [MMV687812]	18.86	22.66	PGI release, % of Tx-100 control, average, 5d [1]: 3.65%; PGI release, % of Tx-100 control, average, 12d [2]: 4.79%
O=C1O[C@@H](COc2ccon2)CN1c1cc(F)c(C2=CCN(Cc3ccccc3)CC2)c(F)c1 [MMV687813]	-0.66	-1.17	–
Cc1cccc(-c2nc(Nc3ccncn3)c3sccc3n2)n1 [MMV688122]	0.14	95.49	PGI release, % of Tx-100 control, average, 5d [1]: -0.80%; PGI release, % of Tx-100 control, average, 12d [2]: -0.86%
CCc1ccc(S(=O)(=O)Nc2cc(CN3CCN(CCC(C)C)CC3)ccc2C)cc1 [MMV688124]	-0.0233	-0.17	–
CCCc1ccc(S(=O)(=O)Nc2ccc(CN3CCN(CC4CC4)CC3)cc2)cc1 [MMV688125]	-0.08	-1.69	–
c1ccc(Oc2ccc(-c3cncc(-c4ccc5[nH]ccc5c4)n3)cc2)cc1 [MMV688178]	0.34	0.47	–
NC(N)=Nc1ccc(-c2ccc(-c3ccc(N=C(N)N)cc3Cl)o2)c(Cl)c1 [MMV688179]	-4.57	19.83	–
Cc1nn(C)c(C)c1NS(=O)(=O)c1c(Cl)cc(-c2ccnc(N3CCNCC3)c2)cc1Cl [MMV688180]	-0.14	0.11	–
C[C@]1(COc2ccc(N3CCC(Oc4ccc(OC(F)(F)F)cc4)CC3)cc2)Cn2cc([N+](=O)[O-])nc2O1 [MMV688262, Delaminid, reference compound]	-3.74	-0.38	–
COc1ccc(-c2cnc3cnc(-c4cccc(OC(C)C)c4)cn23)cc1 [MMV688270]	0.02	-0.02	–
N=C(N)Nc1ccc(-c2ccc(-c3ccc(N=C(N)N)c(Cl)c3)o2)cc1Cl [MMV688271]	9.82	13.94	–
Nc1ccc2ncnc(Nc3ccc(OCc4cccc(F)c4)c(Cl)c3)c2c1 [MMV688273]	-1.47	-4.16	–

— PMC6216040, “Repurposing of an old drug: In vitro and in vivo efficacies of buparvaquone against Echinococcus multilocularis” (International Journal for Parasitology: Drugs and Drug …, 2018)
